Data on 1 molecule can be found in patent publication US20230321127A1, “SPERM MOTILITY IMPROVING AGENT AND SPERM MOTILITY IMPROVING METHOD” (MIRAILAB BIOSCIENCE INC., priority 2020, published 2023).

The test system of the experiment is swine sperms. The experiment in a line: Swine sperm motility analyzed by CASA during incubation with NMN alone or NMN+PQQ. Format: cell-based. On the procedure:
Upon arrival of a pack containing swine diluted semen (sperm concentration (total sperm count) 30,000,000/ml, HIRO-SWINE B solution (HIROSHIMA CRYO-PRESERVATION SERVICE) was used as a diluent) provided by Oita Prefectural Agriculture, Forestry and Fisheries Research Center, the pack was immediately stored in an incubator at 15° C. The next day, 5 ml of the above semen from each pack was transferred to a 15 ml centrifuge tube, NMN was added to concentrations from 0.1 to 100 μM (0.1 μM, 1 μM, 10 μM, 100 μM) using HIRO-SWINE B solution as a culture medium, and they were incubated at 37° C. for up to 6 hours. For some diluted semen, pyrrolo-quinoline quinone (PQQ) (MITSUBISHI GAS CHEMICAL COMPANY, INC) was added to a concentration of 100 nM, in addition to NMN or without the addition of NMN, and it was incubated in the same manner. Sperms were taken out at 0, 2, 4, and 6 hours after the start of incubation, and their sperm motility was analyzed using CASA (HT CASA-Ceros II (product name), Hamilton Thorne, Inc.). […] The error bars in FIG. 2 represent standard errors. Sperm motion loci were also photographed by phase contrast microscopy at 2, 4, and 6 hours after the start of incubation and the photographs were shown in FIG. 3.

Where [1] appears, read: NMN alone addition zone (PQQ-), 0.1-100 μM, effect observed up to 4 hours later.
Setting [2] is: NMN alone addition zone, 6 hours later.

As for `NC(=O)c1ccc[n+]([C@@H]2O[C@H](COP(=O)([O-])O)[C@@H](O)[C@H]2O)c1` [NMN, nicotinamide mononucleotide], the “total moment (proportion of sperms in motion to total sperms counted)” value (NMN 0.1-100 μM added to swine diluted semen, 37° C., up to 6 hours) is “not affected”. Under setting [1], the “straight (forward) moment” value is “significantly increased” and the “straight (forward) speed” value is on record as “significantly increased”. Further, under setting [2], the “improving effect on the straight moment” value is “disappeared” and the “improving effect on the straight speed” value is on record as “disappeared”.
